Here are results for six compounds from patent US7138421B2, “Anti-androgenic pyrrolidines with tumor-inhibiting action” (Schring Aktiengesellschaft, priority 2003, dated 2006).

Data set [1] concerns seminal vesicles. Briefly: Anti-androgenic action on testosterone-stimulated growth of the seminal vesicles of castrated mice. The data set is classed as in vivo, mouse. As to conditions: 7 days, castrated mice with testosterone propionate. As for the experimental part:
The function and the size of accessory reproductive glands (prostate and seminal vesicles) depend on androgens. In castrated animals, a growth of these organs is induced by the administration of androgen. Simultaneous treatment with anti-androgens inhibits this growth in a dose-dependent manner. For the examination of test substances, the mice were castrated. On the same day, treatment with testosterone propionate (0.03 mg/mouse) and the test substances (1× daily 10 or 30 mg/kg p.o. in benzyl benzoate-castor oil or ethanol/peanut oil (10:90)) was formulated. The treatment was carried out over 7 days and at the end of the test, the weights of the seminal vesicles and prostate were determined. The inhibition of the seminal vesicle growth, in percent, was calculated in reference to the control groups (with and without testosterone). As a reference substance, cyproterone acetate (30 mg/kg s.c. and p.o.) was used.

Data set [2] concerns LNCaP cells. Briefly: Inhibition of the proliferation of LNCaP cells (crystal violet assay). The data set is classed as cell-based, human. As to conditions: for IC50: 7 to 8 days. As for the experimental part: For the proliferation assay, 6000 LNCaP cells/well (Horoszewicz et al. Cancer Res. 1983, 43, 1809–1817) in a microtiter plate (96-well) in 50 μl of RPMI1640 medium are grown with 5% CCS and cultivated as in Model 1. After 24 hours, the cells receive 50 μl of 2×-concentrated test substance, diluted in culture medium. The solvent concentration is 0.5% DMSO. After 4 days, the cells receive another 100 μl of 1×-concentrated test substance, diluted in culture medium. After 7 to 8 days, the proliferation rate of the cells is determined by means of crystal violet assay (Gillies et al. Anal. Biochem. 1986, 159, 109–113). To determine the antagonism, the substance treatment is performed in the presence of […] of R1881 (1:1000 dilution of ethanolic solution). Control cells receive only 0.5% DMSO. For the agonism, the cells are treated only with test substance (without R1881).

Data set [3] addresses T1, androgen receptor (Homo sapiens, UniProt P10275, T878A).
T1 construct: Destabilization of AR in LNCaP Cells by Test Substances; endogenous in cells; host or cells: LNCaP (human prostate cell line)
T1 sequence (P10275 1-920 T878A): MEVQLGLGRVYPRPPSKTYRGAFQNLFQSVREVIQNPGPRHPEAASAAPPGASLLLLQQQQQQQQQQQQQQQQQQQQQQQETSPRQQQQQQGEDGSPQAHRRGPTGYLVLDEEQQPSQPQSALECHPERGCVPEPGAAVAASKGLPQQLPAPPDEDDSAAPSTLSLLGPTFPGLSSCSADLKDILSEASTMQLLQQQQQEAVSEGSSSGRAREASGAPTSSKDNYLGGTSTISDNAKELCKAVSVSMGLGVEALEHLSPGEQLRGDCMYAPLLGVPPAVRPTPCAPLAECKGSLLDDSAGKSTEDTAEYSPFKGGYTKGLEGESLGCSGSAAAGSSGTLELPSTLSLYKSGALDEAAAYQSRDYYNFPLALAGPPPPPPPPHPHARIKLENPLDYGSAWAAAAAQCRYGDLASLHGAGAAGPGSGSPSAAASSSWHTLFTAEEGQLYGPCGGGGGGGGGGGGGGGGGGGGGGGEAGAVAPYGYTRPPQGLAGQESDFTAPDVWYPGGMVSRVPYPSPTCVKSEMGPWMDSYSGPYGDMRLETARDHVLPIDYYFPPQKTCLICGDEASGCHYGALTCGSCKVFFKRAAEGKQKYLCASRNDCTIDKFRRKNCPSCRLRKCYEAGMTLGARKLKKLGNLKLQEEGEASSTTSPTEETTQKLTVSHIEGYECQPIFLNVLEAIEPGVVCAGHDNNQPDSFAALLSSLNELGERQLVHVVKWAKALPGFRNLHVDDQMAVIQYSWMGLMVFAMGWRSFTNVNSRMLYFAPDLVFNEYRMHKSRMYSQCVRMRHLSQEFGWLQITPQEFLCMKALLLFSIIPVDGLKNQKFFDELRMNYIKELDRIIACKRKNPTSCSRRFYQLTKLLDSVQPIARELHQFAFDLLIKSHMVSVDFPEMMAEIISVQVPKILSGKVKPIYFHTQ
Format: cell-based. The following applies: LNCaP cells, 48 h, 10 μM, % of DMSO control.

The nature of data set [4]: Pharmacokinetics in rats after intravenous and peroral administration. Format: in vivo. The following applies: rat, serum; for Vd / clearance: intravenous; for Vd: read-out: Distribution Volume Vdss; for clearance: read-out: Systemic Serum Clearance CL; for Tmax: read-out: Absorption Tmax. The text has this: Model 4: Pharmacokinetics in Rats After Intravenous and Peroral Administration
The pharmacokinetic properties of the compounds according to the invention were studied in Examples 1: 4-[4,4-dimethyl-5-oxo-3-[8-(pyrrolidin-1-yl)octyl]-2-thioxoimidazolidin-1-yl]-2-(trifluoromethyl)benzonitrile and 11: 4-[3-[8-[(2S)-2-(hydroxymethyl)pyrrolidin-1-yl]octyl]-4,4-dimethyl-5-oxo-2-thioxoimidazolidin-1-yl]-2-(trifluoromethyl)benzonitrile.

Setting [5] is: Homo sapiens, LNCaP, read-out: % Inhibition at 1 μM, 1 μM test substance, compared to cell growth in the presence of 0.1 nmol of R1881.
Where [6] appears, read: Homo sapiens, LNCaP, read-out: IC50 inhibition of the proliferation of LNCaP cells, in the presence of 0.1 nmol of R1881.
Where [7] appears, read: iv, read-out: Half-Life i.v. T1/2 (converted).
The mark [8] stands for this setting: po, read-out: Half-Life p.o. T1/2 (converted).

Molecules are shown by their SMILES. Like-named read-outs stand apart in the source and are kept apart here.

The term inhibition denotes the relative decrease from the control value, in per cent. Broadly, the bioavailability is dose-corrected exposure relative to a reference, in per cent. Lower therefore signals little systemic uptake. In general, Tmax refers to the time at which the peak concentration occurs. With `CC1(C)C(=O)N(c2ccc(C#N)c(C(F)(F)F)c2)C(=S)N1CCCCCCCCN1CCCC1` [Example 1, 4-[4,4-Dimethyl-5-oxo-3-[8-(pyrrolidin-1-yl)octyl]-2-thioxoimidazolidin-1-yl]-2-(trifluoromethyl)benzonitrile], the “% Inhibition of MSB Growth” value in data set [1] (10 mg/kg p.o., 1× daily) amounted to 82%. Moreover, the “% Inhibition of MSB Growth” value in data set [1] (30 mg/kg p.o., 1× daily) is 99%. In addition, in data set [2] (setting [5]), the inhibition at 1 µM amounted to 98%. In addition, the IC50 in data set [2] (setting [6]) is 45 nM. In addition, the “AR Content at 10 μM” value in data set [3] is given as 63%. Also, in data set [4], the Vd turned out to be 37 L/kg and the clearance amounted to 76 mL/min/kg. Moreover, the half-life in data set [4] (setting [7]) was 5.6 h. For the same compound, in data set [4] (po), the bioavailability stood at 72% and the Tmax turned out to be 5 h. In addition, the half-life in data set [4] (setting [8]) was 6.1 h.
With `CC1(C)C(=O)N(c2ccc(C#N)c(C(F)(F)F)c2)C(=S)N1CCCCCCCCN1CCC[C@H]1CO` [Example 11, 4-[3-[8-[(2S)-2-(Hydroxymethyl)pyrrolidin-1-yl]octyl]-4,4-dimethyl-5-oxo-2-thioxoimidazolidin-1-yl]-2-(trifluoromethyl)benzonitrile], the “% Inhibition of MSB Growth” value in data set [1] (30 mg/kg p.o., 1× daily) worked out at 95%. In addition, the inhibition at 1 µM in data set [2] (setting [5]) was 102%. Further, in data set [2] (setting [6]), the IC50 worked out at 13 nM. In data set [3], the “AR Content at 10 μM” value was found to be 50%. In data set [4], the Vd was found to be 11 L/kg and the clearance amounted to 20 mL/min/kg. The half-life in data set [4] (setting [7]) was 5.7 h. In data set [4] (po), the bioavailability was determined as 65% and the time to peak (Tmax) was found to be 7 h. Moreover, in data set [4] (setting [8]), the half-life is 8 h.
As usually defined, the % Inhibition is the drop in the measured response relative to a control, in per cent. `CC1(C)C(=O)N(c2ccc(C#N)c(C(F)(F)F)c2)C(=S)N1CCCCCCCCN1CCCC1.Cl` [Example 2, 4-[4,4-Dimethyl-5-oxo-3-[8-(pyrrolidin-1-yl)octyl]-2-thioxoimidazolidin-1-yl]-2-(trifluoromethyl)benzonitrile hydrochloride]: in data set [1] (30 mg/kg p.o., 1× daily), the “% Inhibition of MSB Growth” value is recorded as 95%. Moreover, the “% Inhibition at 1 μM” value in data set [2] (1 μM test substance, compared to cell growth in the presence of 0.1 nmol of R1881) is reported as 100%. Further, in data set [2] (read-out: IC50 inhibition of the proliferation of LNCaP cells, in the presence of 0.1 nmol of R1881, hydrochloride), the IC50 stood at 41 nM. In addition, in data set [3], the “AR Content at 10 μM” value was found to be 50%.
Take `CC(=O)O[C@]1(C(C)=O)CC[C@H]2[C@@H]3C=C(Cl)C4=CC(=O)[C@@H]5C[C@@H]5[C@]4(C)[C@H]3CC[C@@]21C` [CPA, 17-(acetyloxy)-6-chloro-1β,2β-dihydro-3′H -cyclopropa[1,2]pregna-1,4,6-triene-3,20-dione, reference compound]: the “% Inhibition of MSB Growth” value in data set [1] (30 mg/kg s.c.) is listed as 85%.
As to `CC(O)(CS(=O)(=O)c1ccc(F)cc1)C(=O)Nc1ccc(C#N)c(C(F)(F)F)c1` (centres unmarked) [Bicalutamide, N-[4-Cyano-3-(trifluoromethyl)phenyl]-3-[(4-fluorophenyl)sulfonyl]-2-hydroxy-2-methylpropanamide, reference compound], the “% Inhibition of MSB Growth” value in data set [1] (30 mg/kg p.o., 1× daily) amounted to 82%; in data set [1] (30 mg/kg s.c.) it was 86%. For the same compound, in data set [2] (Homo sapiens, LNCaP, 1 μM test substance, compared to cell growth in the presence of 0.1 nmol of R1881, read-out: % Inhibition at 1 μM), the inhibition at 1 µM is 85%.
With `CC1(C)C(=O)N(c2ccc(C#N)c(C(F)(F)F)c2)C(=S)N1CCCCCCCCN1CCC[C@@H]1CO` [Example 10, 4-[3-[8-[(2R)-2-(Hydroxymethyl)pyrrolidin-1-yl]octyl]-4,4-dimethyl-5-oxo-2-thioxoimidazolidin-1-yl]-2-(trifluoromethyl)benzonitrile], the “% Inhibition of MSB Growth” value in data set [1] (10 mg/kg p.o., 1× daily) stood at 87%. Also, the inhibition at 1 µM in data set [2] (setting [5]) was 101%. In addition, in data set [2] (setting [6]), the IC50 was below 10 nM.
